This is an account of results in ChEMBL document CHEMBL3612057, “Discovery of indolizines containing triazine moiety as new leads for the development of antitumoral agents targeting mitotic events” (2015).

In one assay the test system is A549. As to the kind of experiment: Cytotoxicity against human A549 cells assessed as growth inhibition at 10 uM after 24 hrs by SRB assay. Particulars: A549, 24 h, read-out: GI. The assay is classed as functional. In general terms: Sulforhodamine B stains cellular protein and so reports cell mass.
A further assay deals with K562. The experiment in a line: Cytotoxicity against human K562 cells assessed as growth inhibition at 10 uM after 24 hrs by SRB assay. Format: functional.
The next assay relates to UACC-62. As to the kind of experiment: Cytotoxicity against human UACC62 cells assessed as growth inhibition at 10 uM after 24 hrs by SRB assay. The assay is classed as functional. Particulars: UACC-62, 24 h, read-out: GI.
The next assay relates to MDA-MB-435. The experiment in a line: Cytotoxicity against human MDA-MB-435 cells assessed as growth inhibition at 10 uM after 24 hrs by SRB assay. Format: functional.
The next assay has as its system OVCAR-4. As to the kind of experiment: Cytotoxicity against human OVCAR4 cells assessed as growth inhibition at 10 uM after 24 hrs by SRB assay. Format: functional.
The next assay deals with RPMI-8226. As to the kind of experiment: Cytotoxicity against human RPMI8226 cells assessed as growth inhibition at 10 uM after 24 hrs by SRB assay. The assay is classed as functional.
The test system of a further assay is TK-10. As to the kind of experiment: Cytotoxicity against human TK10 cells assessed as growth inhibition at 10 uM after 24 hrs by SRB assay. The assay is classed as functional.
The next assay deals with OVCAR-3. As to the kind of experiment: Cytotoxicity against human OVCAR3 cells assessed as growth inhibition at 10 uM after 24 hrs by SRB assay. The assay is classed as functional.
Another assay deals with CCRF-CEM. As to the kind of experiment: Cytotoxicity against human CCRF-CEM cells assessed as growth inhibition at 10 uM after 24 hrs by SRB assay. Format: functional.
For the next assay, the system named is PC-3. As to the kind of experiment: Cytotoxicity against human PC3 cells assessed as growth inhibition at 10 uM after 24 hrs by SRB assay. The assay is classed as functional.
A further assay has as its system SK-MEL-28. As to the kind of experiment: Cytotoxicity against human SK-MEL-28 cells assessed as growth inhibition at 10 uM after 24 hrs by SRB assay. Format: functional.
In the next assay the test system is Malme-3M. The experiment in a line: Cytotoxicity against human MALME-3M cells assessed as growth inhibition at 10 uM after 24 hrs by SRB assay. The conditions noted are these: read-out: GI. Format: functional.
The next assay deals with SR. As to the kind of experiment: Cytotoxicity against human SR cells assessed as growth inhibition at 10 uM after 24 hrs by SRB assay. Format: functional.
The subject of the next assay is ACHN. As to the kind of experiment: Cytotoxicity against human ACHN cells assessed as growth inhibition at 10 uM after 24 hrs by SRB assay. The conditions noted are these: read-out: GI. Format: functional.
The species entered for another assay is Ovis aries. The experiment in a line: Inhibition of sheep tubulin polymerization at 100 uM by fluorescence assay.
The subject of a further assay is MCF7. The experiment in a line: Cytotoxicity against human MCF7 cells assessed as growth inhibition at 10 uM after 24 hrs by SRB assay. Format: functional.
The next assay has as its system NCI-H460. As to the kind of experiment: Cytotoxicity against human NCI-H460 cells assessed as growth inhibition at 10 uM after 24 hrs by SRB assay. The assay is classed as functional.
A further assay deals with OVCAR-8. As to the kind of experiment: Cytotoxicity against human OVCAR8 cells assessed as growth inhibition at 10 uM after 24 hrs by SRB assay. The assay is classed as functional. Particulars: OVCAR-8, 24 h, read-out: GI.
A further assay deals with SK-MEL-5. The experiment in a line: Cytotoxicity against human SK-MEL-5 cells assessed as growth inhibition at 10 uM after 24 hrs by SRB assay. Format: functional.
For the next assay, the system named is HOP-62. The experiment in a line: Cytotoxicity against human HOP62 cells assessed as growth inhibition at 10 uM after 24 hrs by SRB assay. Particulars: HOP-62, 24 h, read-out: GI. Format: functional.
The test system of another assay is U-251. The experiment in a line: Cytotoxicity against human U251 cells assessed as growth inhibition at 10 uM after 24 hrs by SRB assay. Format: functional. Particulars: U-251, 24 h, read-out: GI.
Assay [1] can be described thus: Cytotoxicity against human Hs578T cells assessed as growth inhibition at 10 uM after 24 hrs by SRB assay. The conditions noted are these: Hs-578T, read-out: GI. The assay is classed as functional.
For another assay, the system named is CAKI-1. The experiment in a line: Cytotoxicity against human CAKI-1 cells assessed as growth inhibition at 10 uM after 24 hrs by SRB assay. The assay is classed as functional.
For the next assay, the system named is NCI/ADR-RES. As to the kind of experiment: Cytotoxicity against human NCI/ADR-RES cells assessed as growth inhibition at 10 uM after 24 hrs by SRB assay. Format: functional. Particulars: read-out: GI.
Another assay concerns SK-OV-3. As to the kind of experiment: Cytotoxicity against human SKOV3 cells assessed as growth inhibition at 10 uM after 24 hrs by SRB assay. The assay is classed as functional. The conditions noted are these: SK-OV-3, 24 h, read-out: GI.
In a further assay the test system is UACC-257. The experiment in a line: Cytotoxicity against human UACC257 cells assessed as growth inhibition at 10 uM after 24 hrs by SRB assay. The assay is classed as functional. Particulars: UACC-257, 24 h, read-out: GI.
Another assay deals with SF-539. The experiment in a line: Cytotoxicity against human SF539 cells assessed as growth inhibition at 10 uM after 24 hrs by SRB assay. The assay is classed as functional. The conditions noted are these: SF-539, 24 h, read-out: GI.
For a further assay, the system named is MDA-MB-231. The experiment in a line: Cytotoxicity against human MDA-MB-231 cells assessed as growth inhibition at 10 uM after 24 hrs by SRB assay. The assay is classed as functional. The conditions noted are these: MDA-MB-231, 24 h, read-out: GI.
A further assay has as its system SF-295. The experiment in a line: Cytotoxicity against human SF295 cells assessed as growth inhibition at 10 uM after 24 hrs by SRB assay. The assay is classed as functional.
For another assay, the system named is HOP-92. As to the kind of experiment: Cytotoxicity against human HOP92 cells assessed as growth inhibition at 10 uM after 24 hrs by SRB assay. Format: functional.
Another assay relates to SNB-75. As to the kind of experiment: Cytotoxicity against human SNB75 cells assessed as growth inhibition at 10 uM after 24 hrs by SRB assay. The assay is classed as functional. Particulars: SNB-75, 24 h, read-out: GI.
The next assay has as its system NCI-H226. As to the kind of experiment: Cytotoxicity against human NCI-H226 cells assessed as growth inhibition at 10 uM after 24 hrs by SRB assay. The assay is classed as functional.
A further assay has as its system HL-60(TB). As to the kind of experiment: Cytotoxicity against human HL-60(TB) cells assessed as growth inhibition at 10 uM after 24 hrs by SRB assay. Format: functional.
The test system of a further assay is RXF 393. As to the kind of experiment: Cytotoxicity against human RXF393 cells assessed as growth inhibition at 10 uM after 24 hrs by SRB assay. Format: functional. Particulars: RXF 393, 24 h, read-out: GI.
The subject of another assay is HCT-116. As to the kind of experiment: Cytotoxicity against human HCT116 cells assessed as growth inhibition at 10 uM after 24 hrs by SRB assay. The assay is classed as functional.
Another assay relates to NCI-H522. The experiment in a line: Cytotoxicity against human NCI-H522 cells assessed as growth inhibition at 10 uM after 24 hrs by SRB assay. Format: functional. The conditions noted are these: NCI-H522, 24 h, read-out: GI.
In the next assay the test system is 786-0. The experiment in a line: Cytotoxicity against human 786-0 cells assessed as growth inhibition at 10 uM after 24 hrs by SRB assay. Format: functional. Particulars: 786-0, 24 h, read-out: GI.
The next assay has as its system T47D. As to the kind of experiment: Cytotoxicity against human T47D cells assessed as growth inhibition at 10 uM after 24 hrs by SRB assay. Format: functional.

The source made the active and inactive calls. No cut-off for these calls is given here.

Take `COc1nc(OC)nc(-c2cc(C(=O)c3cc(OC)c(OC)c(OC)c3)n3ccc(C)cc23)n1`: the inhibition of growth at 10 µM with A549 amounted to 36%; in the assay with K562 (K562, 24 h, read-out: GI), 56%; in the assay with UACC-62, 63%; with MDA-MB-435 (MDA-MB-435, 24 h, read-out: GI), 100%; in the assay with OVCAR-4 (OVCAR-4, 24 h, read-out: GI), 21%; in the assay with RPMI-8226 (RPMI-8226, 24 h, read-out: GI) it was 30%. Further, the inhibition of growth at 10 µM worked out at 75% with OVCAR-3 (OVCAR-3, 24 h, read-out: GI); 26% in the assay on CCRF-CEM (read-out: GI); 36% in the assay with PC-3 (PC-3, 24 h, read-out: GI); 40% in the assay on SK-MEL-28 (SK-MEL-28, 24 h, read-out: GI); 61% in the assay on Malme-3M; 74% in the assay on SR (read-out: GI). Also, the inhibition of growth at 10 µM with ACHN came out at 47%; with MCF7 (MCF7, 24 h, read-out: GI), 73%; in the assay on NCI-H460 (NCI-H460, 24 h, read-out: GI) it was 16%; with OVCAR-8 it was 15%; in the assay on SK-MEL-5 (SK-MEL-5, 24 h, read-out: GI), 63%; in the assay with HOP-62, 28%. For the same compound, the inhibition of growth at 10 µM in the assay on U-251 is 15%; in assay [1] it was 35%; in the assay on CAKI-1 (CAKI-1, 24 h, read-out: GI), 25%; in the assay on NCI/ADR-RES it was 24%; with SK-OV-3, 29%; in the assay on UACC-257, 38%. Further, the inhibition of growth at 10 µM in the assay on SF-539 stood at 29%; with MDA-MB-231, 25%; in the assay on SNB-75, 58%; in the assay with HL-60(TB) (HL-60, 24 h, read-out: GI), 60%; with RXF 393 it was 41%; in the assay with HCT-116 (HCT-116, 24 h, read-out: GI), 27%. For the same compound, the inhibition of growth at 10 µM with NCI-H522 was found to be 43%; in the assay on 786-0, 20%. Besides, the “growth inhibition (GI)” value in the assay on TK-10, in the assay on SF-295, in the assay with HOP-92 and with NCI-H226 was “inactive” throughout. For the same compound, the inhibition entry in the assay listed under Ovis aries is “inactive”.
For the compound `COc1nc(OC)nc(-c2cc(C(=O)c3ccc(Br)cc3)n3cc(C)cc(C)c23)n1`, the inhibition result in the assay filed under Ovis aries was “inactive”.
Turning to `COc1nc(OC)nc(-c2cc(C(=O)c3ccc(C)cc3)n3ccc(C#N)cc23)n1`, the inhibition of growth at 10 µM with A549 turned out to be 11%; in the assay with UACC-62, 14%; with Malme-3M, 17%; with ACHN, 15%; in the assay with OVCAR-8, 14%; in the assay with HOP-62, 60%. Moreover, the inhibition of growth at 10 µM in the assay with U-251 was determined as 56%; in assay [1], 42%; with SK-OV-3 it was 42%; in the assay with UACC-257 it was 16%; in the assay with SF-539, 42%; in the assay with MDA-MB-231, 39%. The inhibition of growth at 10 µM in the assay on SF-295 (SF-295, 24 h, read-out: GI) was 47%; in the assay on HOP-92 (HOP-92, 24 h, read-out: GI), 11%; in the assay on SNB-75, -14%; in the assay on RXF 393, 52%; with NCI-H522, 21%; in the assay on 786-0, 40%. The “growth inhibition (GI)” value in the assay on K562, in the assay with MDA-MB-435, with OVCAR-4, in the assay with RPMI-8226, in the assay on TK-10 and in the assay with OVCAR-3 was “inactive” in each case. In addition, the “growth inhibition (GI)” value with CCRF-CEM, in the assay with PC-3, in the assay on SK-MEL-28, in the assay with SR, in the assay with MCF7 and in the assay on T47D was “inactive” in each case. In addition, the “growth inhibition (GI)” value in the assay on NCI-H460, in the assay on SK-MEL-5, in the assay with CAKI-1, in the assay with NCI-H226, in the assay with HL-60(TB) and in the assay on HCT-116 was “inactive” in each case. The inhibition entry in the assay listed under Ovis aries is “inactive”.
In the case of `O=C(c1ccc(Br)cc1)c1cc(-c2nc(=O)[nH]c(=O)[nH]2)c2ccccn12`, the inhibition entry in the assay filed under Ovis aries was “inactive”.
On to `COc1nc(OC)nc(-c2cc(C(=O)c3ccc(C#N)cc3)n3ccccc23)n1`, for which the inhibition result in the assay filed under Ovis aries is “inactive”.
Same read-out and setting: the same measure for `COc1nc(OC)nc(-c2cc(C(=O)c3ccc(F)cc3)n3ccccc23)n1`: “inactive”; for `COc1nc(-c2cc(C(=O)c3ccc(Br)cc3)n3ccccc23)[nH]c(=O)n1`: “inactive”; for `Cn1c(-c2cc(C(=O)c3ccc(Br)cc3)n3ccccc23)nc(=O)[nH]c1=O`: “inactive”.
The same measure, in the same setting: the same measure for `COc1nc(OC)nc(-c2cc(C(=O)c3ccc(-c4ccccc4)cc3)n3ccccc23)n1`: “inactive”.
